# Patent US7625917B2, “Thiolesters and uses thereof” (priority 1998, dated 2009)
# How the values were obtained:
# [1] = tested on: HIV-1 virus; assay: Virus inactivation by PCR assay of treated virions; format: cell-based
# Text: The thiolester-treated virions can also be tested for infectivity. The virions are suspended in media (rather than solubilized) and added to target cells. The cultures are then examined to determine whether the virions are still active. To determine whether the treated virus particles are active, the cells are monitored for the presence of intracellularly-synthesized viral RNA using, for example, the polymerase chain reaction (PCR) (Rice (1993) Proc. Natl. Acad. Sci. USA 90:9721;Turpin (1996) J. Virol. 70:6180). Alternatively, cytoprotection assays can be used (Weislow (1993) J. Natl. Cancer Inst. 81:577).
# An example of a compound which can be used as a control in the gel mobility shift assay is azodicarbonamide (ADA), a compound which is commercially available from the Aldrich Chemical Company (Milwaukee, Wis.).
# [2] = target: T1, Virion-associated NCp7 proteins from cell-free HIV-1MN (Human immunodeficiency virus type 1 group M subtype B, UniProt P05888); assay: Virion NCp7 cross-linking (non-reducing Western blotting)
# T1 construct: attack on the mature NCp7 retroviral zinc fingers in the cell-free virus; endogenous in cells
# Method: The interaction of zinc finger inhibitors, such as the thiolesters of the invention, with cell-free virus can result in modification of intravirion NCp7 protein and loss of infectivity. Virion-associated NCp7 proteins from cell-free HIV-1MN were treated with thiolester compounds 44 and 45. They were also evaluated by non-reducing Western blotting using HIV-1 NCp7-specific antibodies. […] Cross-linking by compound 45 was due to formation of intermolecular disulfide bonds because reduction with 2-mercaptoethanol (β-ME) completely reversed the gel retardation.
# Virion cross linking was performed as described by Rice (1995) Science 270:1194-1197 and Turpin (1997) Antiviral Chem. Chemother. 8:60-67. Briefly, highly purified HIV-1MN (11.8 μg total protein) was incubated for 2 hour with concentrations of compound. Virions were concentrated and residual compound was removed by centrifugation (18,000×g, 1 h, 4° C.). The viral pellet was solubilized in 0.5 M Tris-HCl, (pH 6.8), 50% glycerol, 8% SDS and 0.4% bromophenol blue and proteins resolved by Western blotting. Western blotting to detect the expression of HIV-1 proteins in U1 cells or virus pellets for virion cross-linking experiments was carried out as described by Turpin (1996) J. Virol. 70:6180-6189. Briefly, 50 μg of total cellular protein for U1 experiments or the. total virion pellet (11.8 μg total viral protein) for NCp7 cross linking studies was resolved on 4 to 20% polyacrylamide gels in SDS with Tris-Glycine (Novex, San Diego Calif.). Samples for reduced gels were boiled for 5 min in the presence of 5% β-ME prior to loading. Resolved proteins were electroblotted on to polyvinylidene difluoride (PVDF) membranes, and HIV-1 specific proteins were detected using a mixture of goat anti-HIV-1 NCp7 and p24 or anti-NCp7 for virion proteins alone (a kind gift of L. E. Henderson, AIDS Vaccine Program NCI-FCRDC, Frederick, Md.). Western blots were developed using standard chemiluminescence methodologies, as produced and described by Dupont-NEN, Wilmington, Del.
# Purified concentrated retrovirus and antisera against the purified NC protein of the virus can be used to test the ability of a specific compound to penetrate the virus and react with the NC protein by forming disulfide complexes in the core of the virus. Compound are mixed with the whole retrovirus under reaction conditions appropriate for the compound. The virus is then removed from the reagent by centrifugation and disrupted in, e.g., standard SDS-PAGE sample buffer with (reduced) and without (non-reduced) 2-mercaptoethanol. The viral proteins are then separated by standard SDS-PAGE and the sample examined for the presence or absence of the monomeric zinc finger protein in the non-reduced sample. Depending upon the virus used in the experiment and the conditions of electrophoresis, the zinc finger protein can be visualized by protein staining methods, or by immuno-blot methods. Compounds which react with the zinc finger protein by attacking the zinc finger complexes and forming disulfide cross-linked products inactivate the virus. Thus, compounds of interest (i.e., those which cause cross-linking), including the thiolesters of the invention, reduce the amount of monomeric zinc finger protein detected.
# [3] = tested on: HIV-1RF; assay: XTT cytoprotection assay (antiviral activity); format: cell-based; conditions: Table 10; read-out: EC50 %
# Text: One exemplary means to determine antiviral activity is with CEM-SS cells and virus (e.g., HIV-1RF) (MOI=0.01) using the XTT (2,3-bis[2-methoxy-4-nitro-5-sulfophenyl]-5-[(phenylamino)carbonyl]-2H-tetrazolium hydroxide) cytoprotection assay, as described by Rice (1993) PNAS 90:9721-9724, and Rice (1997) Antimicrob. Agents Chemother. 41:419-426. Briefly, cells are infected with HIV-1 RF (or other virus to be tested) in the presence of various dilutions of test compounds (thiolesters and controls). The cultures are incubated for seven days. During this time control cultures without protective compounds (i.e., compounds with anti-viral activity) replicate virus, induce syncytia, and result in about 90% cell death. The cell death is measured by XTT dye reduction. XTT is a soluble tetrazolium dye that measures mitochondrial energy output, similar to MTT. Positive controls using dextran sulfate (an attachment inhibitor) or 3′-Azido-2′-3′-dideoxythymidine, AZT (a reverse transcriptase inhibitor) are added to each assay. Individual assays are done in duplicate using a sister plate method.
# Effective antiviral concentrations providing 50% cytoprotection (EC50), and cellular growth inhibitory concentrations causing 50% cytotoxicity (IC50) are calculated.
# [4] = tested on: CEM-SS cells; assay: cells; format: cell-based; conditions: Table 10; 50% cytotoxicity; read-out: IC50
# Method: Agents Chemother. […] Briefly, cells are infected with HIV-1 RF (or other virus to be tested) in the presence of various dilutions of test compounds (thiolesters and controls). The cultures are incubated for seven days. […] The cell death is measured by XTT dye reduction. XTT is a soluble tetrazolium dye that measures mitochondrial energy output, similar to MTT. Positive controls using dextran sulfate (an attachment inhibitor) or 3′-Azido-2′-3′-dideoxythymidine, AZT (a reverse transcriptase inhibitor) are added to each assay. Individual assays are done in duplicate using a sister plate method.
# [5] = target: T2, recombinant HIV-1 NCp7 protein (Human immunodeficiency virus type 1 group M subtype B, UniProt P03347); assay: Trp37 zinc finger fluorescence (zinc ejection) assay; format: biochemical; conditions: Table 10; average decrease in relative fluorescence units over 30 min
# T2 construct: recombinant HIV-1 NCp7 protein
# Method: Zinc finger reactivity was measured using a Zn specific fluorochrome, TSQ, N-(6-methoxy-8-quinolyl)-p-toluenesulfonamide, assay or a Trp37 zinc finger fluorescence assay. Fluorescent measurements of the Trp37 residue in the C-terminal finger of recombinant HIV-1 NCp7 protein were performed as described by Rice (1995) Science 270:1194-1197; Rice (1997) Antimicrob. Agents Chemother. 41:419-426. Measurement of Zn ejection from both fingers was measured using the Zn-selective fluorchrome probe TSQ (Molecular Probes, Eugene Oreg.) as described by Rice (1996) J. Med. Chem 39:3606-3616. […] Briefly, 50 nM NCp7 was treated with test compounds for 1 hour at RT in […] buffer containing 10% glycerol and 50 mM Tris-HCl (pH 7.5). Labeled oligomer (0.1 picomole, end labeled [^32P] was added in an equal volume of buffer containing 10% glycerol, 50 mM Tris-HCl (pH 7.5), 400 mM KCl and 40 mM MgCl2. The reaction was continued for 15 min at room temperature, and a total of […] (or ¼ of the total reaction volume) was separated on nondenaturing 4.5% polyacrylamide gels in 0.5× Tris-Borate electrophoresis buffer. NCp7-oligomer complexes were visualized by autoradiography.
# Changes in the intrinsic fluorescence of aromatic protein moieties are commonly used to monitor a reaction which involves a change in protein conformation. In the present invention, fluorescence can be used to monitor the loss of metal ion from a zinc finger, e.g., the loss of zinc from a CCHC retroviral zinc finger protein, after contact with a thiolester of the invention. The intrinsic fluorescence of Trp37 in the second zinc finger of HIV-1 NC protein has been used to monitor nucleic acid binding and conformation of the zinc finger complex (see, Summers (1992) supra).
# Zinc ejection is measured by the ability of compounds to chemically attack the cysteines in purified NCp7 protein resulting in a loss of fluorescence due to the. movement of the tryptophan 37 residue […] position on the protein. Zinc ejection is measured and expressed as either percent decrease in total fluorescence or decrease in relative fluorescence units per min during a 30 min assay (RFU/min). A thiolester is considered within the scope of the invention if any amount of zinc ejection is detected.
structure (smiles),measurement,setting,value
"NC(=O)N=NC(N)=O [ADA, azodicarbonamide]",inactivation of HIV-1 virus (in words),[1],inactivates HIV-1 virus
"Cc1cn([C@H]2C[C@H](N=[N+]=[N-])[C@@H](CO)O2)c(=O)[nH]c1=O [AZT, 3′-Azido-2′-3′-dideoxythymidine, reference compound]",intravirion NCp7 cross-linking (in words),[2],failed to cross-link NCp7
CC(=O)NS(=O)(=O)c1ccc(NC(=O)c2ccccc2SC(=O)CCCC[n+]2cccc(Cl)c2)cc1 [Compound 57],EC50,[3],54 µM
same,IC50,[4],264 µM
same,Zinc Finger Reactivity RFU/min,[5],0.2 RFU/min
